# Target: T1, TGM2 (in MC3T3-E1 cells) (Mus musculus, UniProt P21981)
# T1 construct: native full-length protein in MC3T3-E1 pre-osteoblast cells
# T1 sequence (P21981 2-686): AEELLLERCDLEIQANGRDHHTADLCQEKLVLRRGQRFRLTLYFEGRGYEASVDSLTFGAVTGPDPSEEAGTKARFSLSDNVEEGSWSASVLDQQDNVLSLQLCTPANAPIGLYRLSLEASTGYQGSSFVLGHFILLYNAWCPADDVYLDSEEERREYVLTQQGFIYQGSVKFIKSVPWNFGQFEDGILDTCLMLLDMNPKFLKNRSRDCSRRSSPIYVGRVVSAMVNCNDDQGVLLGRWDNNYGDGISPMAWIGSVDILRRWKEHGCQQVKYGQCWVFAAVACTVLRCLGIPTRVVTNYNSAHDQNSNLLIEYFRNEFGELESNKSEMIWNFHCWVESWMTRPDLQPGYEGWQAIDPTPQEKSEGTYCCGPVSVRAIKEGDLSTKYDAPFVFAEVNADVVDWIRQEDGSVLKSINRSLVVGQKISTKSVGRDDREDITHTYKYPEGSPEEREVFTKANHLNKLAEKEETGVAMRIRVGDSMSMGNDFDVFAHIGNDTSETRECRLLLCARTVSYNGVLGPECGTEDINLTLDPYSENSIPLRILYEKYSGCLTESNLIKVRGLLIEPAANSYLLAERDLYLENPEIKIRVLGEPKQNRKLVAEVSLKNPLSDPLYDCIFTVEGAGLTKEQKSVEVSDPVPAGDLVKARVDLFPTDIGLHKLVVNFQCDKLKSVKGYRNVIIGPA
# Experiment: CETSA; DARTS
# Assay type: cell-based
compound,measurement,value
C=C[C@@]1(C)CC(=O)[C@]2(O)[C@@]3(C)[C@@H](O)CCC(C)(C)[C@@H]3[C@H](O)[C@H](OC(C)=O)[C@@]2(C)O1 [Forskolin],thermal stabilisation (CETSA),FSK enhanced the thermal stability of TGM2
